Measurements as given in patent US9718780B2, “Substituted pyridines as sodium channel blockers” (priority 2012, dated 2017).

Biological target: human Nav1.7 (Homo sapiens (Human), UniProt Q15858)
Test: FLIPR or FLIPR TETRA sodium dye assay with KCl and test article pre-incubation
Assay type: cell-based
Details: read-out: Nav1.7 Activity (μM) FLIPR assay IC50 (μM) ± SEM

Sequence of human Nav1.7 (Q15858 with tags, fused parts or gaps limits assumed): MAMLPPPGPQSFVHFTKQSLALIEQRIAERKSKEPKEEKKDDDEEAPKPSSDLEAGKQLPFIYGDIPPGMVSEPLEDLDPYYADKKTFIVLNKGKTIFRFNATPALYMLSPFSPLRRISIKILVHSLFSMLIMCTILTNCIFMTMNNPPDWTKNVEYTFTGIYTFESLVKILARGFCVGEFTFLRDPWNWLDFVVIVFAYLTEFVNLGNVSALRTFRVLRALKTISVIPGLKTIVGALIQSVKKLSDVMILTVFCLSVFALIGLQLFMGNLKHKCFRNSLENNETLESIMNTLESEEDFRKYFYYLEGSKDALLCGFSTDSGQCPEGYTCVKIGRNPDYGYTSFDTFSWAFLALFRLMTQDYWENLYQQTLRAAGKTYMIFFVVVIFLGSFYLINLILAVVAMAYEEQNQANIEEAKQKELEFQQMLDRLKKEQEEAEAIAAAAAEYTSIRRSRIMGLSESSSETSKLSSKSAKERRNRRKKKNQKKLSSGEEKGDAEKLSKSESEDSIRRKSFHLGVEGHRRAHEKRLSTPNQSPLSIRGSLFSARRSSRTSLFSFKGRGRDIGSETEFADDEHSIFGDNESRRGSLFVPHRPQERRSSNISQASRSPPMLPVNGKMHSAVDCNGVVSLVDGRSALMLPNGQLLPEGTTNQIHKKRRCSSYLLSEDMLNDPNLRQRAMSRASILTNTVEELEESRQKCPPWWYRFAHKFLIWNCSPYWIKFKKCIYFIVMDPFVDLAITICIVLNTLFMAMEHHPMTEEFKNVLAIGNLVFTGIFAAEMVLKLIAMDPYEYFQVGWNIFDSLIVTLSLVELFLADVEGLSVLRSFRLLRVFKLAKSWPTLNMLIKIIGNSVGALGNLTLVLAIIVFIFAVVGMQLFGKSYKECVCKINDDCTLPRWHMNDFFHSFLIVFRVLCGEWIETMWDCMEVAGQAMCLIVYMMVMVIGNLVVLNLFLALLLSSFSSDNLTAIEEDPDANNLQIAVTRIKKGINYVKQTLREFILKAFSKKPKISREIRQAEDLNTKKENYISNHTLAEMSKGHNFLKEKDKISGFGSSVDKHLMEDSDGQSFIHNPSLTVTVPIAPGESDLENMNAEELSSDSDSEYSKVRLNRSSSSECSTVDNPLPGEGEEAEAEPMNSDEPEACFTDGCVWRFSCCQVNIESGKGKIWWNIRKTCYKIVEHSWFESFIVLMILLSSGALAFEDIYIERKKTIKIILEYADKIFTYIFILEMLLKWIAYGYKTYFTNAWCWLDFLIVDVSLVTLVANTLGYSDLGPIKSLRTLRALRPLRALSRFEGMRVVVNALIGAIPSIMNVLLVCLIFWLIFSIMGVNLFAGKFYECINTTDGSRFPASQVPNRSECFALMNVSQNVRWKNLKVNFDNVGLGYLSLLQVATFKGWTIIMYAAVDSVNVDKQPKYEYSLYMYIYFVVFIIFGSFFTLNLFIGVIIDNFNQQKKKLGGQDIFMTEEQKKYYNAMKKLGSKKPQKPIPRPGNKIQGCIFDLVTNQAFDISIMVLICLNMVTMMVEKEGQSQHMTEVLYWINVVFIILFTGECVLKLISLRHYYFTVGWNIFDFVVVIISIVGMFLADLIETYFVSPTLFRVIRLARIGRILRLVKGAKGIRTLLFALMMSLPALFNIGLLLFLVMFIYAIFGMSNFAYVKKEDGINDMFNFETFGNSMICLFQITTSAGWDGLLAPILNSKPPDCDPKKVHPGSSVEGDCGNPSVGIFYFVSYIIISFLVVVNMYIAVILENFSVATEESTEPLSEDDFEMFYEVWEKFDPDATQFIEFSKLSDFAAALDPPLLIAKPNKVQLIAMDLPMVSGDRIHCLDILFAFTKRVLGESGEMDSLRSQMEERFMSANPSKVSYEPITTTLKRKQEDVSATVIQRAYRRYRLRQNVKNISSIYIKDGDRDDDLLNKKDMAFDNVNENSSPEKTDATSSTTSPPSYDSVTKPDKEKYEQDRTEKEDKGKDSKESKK

With O=C(c1cccc(-c2ccc(Oc3ccc(F)cc3)cc2)n1)[C@H](O)CO [Compound 1, (R)-1-(6-(4-(4-fluorophenoxy)phenyl)pyridin-2-yl)-2,3-dihydroxypropan-1-one] the IC50 was 0.133 ± 0.005 µM.

N#Cc1ccc(Oc2ccc(-c3cccc(C(=O)[C@H](O)CO)n3)cc2)cc1C(F)(F)F [Compound 2, (R)-4-(4-(6-(2,3-dihydroxypropanoyl)pyridin-2-yl)phenoxy)-2-(trifluoromethyl)benzonitrile] was tested, and the IC50 was 0.365 ± 0.065 µM.

In the case of N#Cc1cc(Oc2ccc(-c3cccc(C(=O)[C@H](O)CO)n3)cc2)ccc1C(F)(F)F [Compound 3, (R)-5-(4-(6-(2,3-dihydroxypropanoyl)pyridin-2-yl)phenoxy)-2-(trifluoromethyl)benzonitrile], the IC50 is reported as 0.402 ± 0.096 µM.

O=C(c1cccc(-c2ccc(Oc3ccc(C(F)(F)F)cc3)cc2)n1)[C@H](O)CO [Compound 4, (R)-2,3-dihydroxy-1-(6-(4-(4-(trifluoromethyl)phenoxy)phenyl)pyridin-2-yl)propan-1-one] gave an IC50 of 0.136 ± 0.016 µM.

In the case of N#Cc1ccc(Oc2ccc(-c3cccc(C(=O)[C@H](O)CO)n3)cc2)cc1 [Compound 5, (R)-4-(4-(6-(2,3-dihydroxypropanoyl)pyridin-2-yl)phenoxy)benzonitrile], the IC50 is reported as 0.149 ± 0.023 µM.

Work on N#Cc1cc(Oc2ccc(-c3cccc(C(O)C(N)=O)n3)cc2)ccc1C(F)(F)F (stereo not drawn) [Compound 6, 2-(6-(4-(3-cyano-4-(trifluoromethyl)phenoxy)phenyl)pyridin-2-yl)-2-hydroxyacetamide] yielded an IC50 of 0.722 ± 0.053 µM.
